Test results taken from PubChem BioAssay AID248 (DTP/NCI, 2004).
Values joined by “and” are separate entries in the source; they are usually repeats but may differ in a detail not shown here. Identical values can stand only once. Inconclusive results and toxic doses are left out. Cut-off read from the data, not from the text of the source: active = T/C of 150% or more; inactive = T/C below 125%.

Tested on: L1210 leukemia ip in BDF1 mice, survival T/C
Test: NCI In Vivo Anticancer Drug Screen. Data for tumor model L1210 Leukemia (intraperitoneal) in B6D2F1 (BDF1) mice
Details: higher = longer survival
Outline: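 Transplantable tumor model; survival measured in treated vs vehicle control mice. Value = treated/control.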

[1] = endpoint: mean survival time, dose: 100.0 mg/kg/injection, schedule: Q01DX001 (ip), vehicle: saline
[2] = endpoint: mean survival time, dose: 200.0 mg/kg/injection, schedule: Q01DX001 (ip), vehicle: saline
[3] = endpoint: mean survival time, dose: 400.0 mg/kg/injection, schedule: Q01DX001 (ip), vehicle: saline
[4] = endpoint: mean survival time, dose: 100.0 mg/kg/injection, schedule: Q04DX002 (ip), vehicle: saline with Tween-80
[5] = endpoint: mean survival time, dose: 200.0 mg/kg/injection, schedule: Q04DX002 (ip), vehicle: saline with Tween-80
[6] = endpoint: mean survival time, dose: 400.0 mg/kg/injection, schedule: Q04DX002 (ip), vehicle: saline with Tween-80
[7] = endpoint: mean survival time, dose: 100.0 mg/kg/injection, schedule: Q01DX001 (ip), vehicle: saline with Tween-80
[8] = endpoint: mean survival time, dose: 200.0 mg/kg/injection, schedule: Q01DX001 (ip), vehicle: saline with Tween-80
[9] = endpoint: mean survival time, dose: 400.0 mg/kg/injection, schedule: Q01DX001 (ip), vehicle: saline with Tween-80
[10] = endpoint: mean survival time, dose: 100.0 mg/kg/injection, schedule: Q01DX009 (ip), vehicle: Klucel (hydroxypropylcellulose) (HPC)
[11] = endpoint: mean survival time, dose: 200.0 mg/kg/injection, schedule: Q01DX009 (ip), vehicle: Klucel (hydroxypropylcellulose) (HPC)
[12] = endpoint: mean survival time, dose: 100.0 mg/kg/injection, schedule: Q04DX003 (ip), vehicle: saline with Tween-80
[13] = endpoint: mean survival time, dose: 200.0 mg/kg/injection, schedule: Q04DX003 (ip), vehicle: saline with Tween-80

Measured: T/C

CNC(=O)CCC(=O)O
inactive: endpoint: mean survival time, dose: 50.0 mg/kg/injection, schedule: Q04DX003 (ip), vehicle: saline 103 % of control | [1] 102 % of control | endpoint: mean survival time, dose: 100.0 mg/kg/injection, schedule: Q04DX003 (ip), vehicle: saline 107 % of control | [2] 93 % of control | endpoint: mean survival time, dose: 200.0 mg/kg/injection, schedule: Q04DX003 (ip), vehicle: saline 108 % of control | [3] 94 % of control

CCN=C(NCC)c1ccc(NC(=O)c2ccc(C(=O)Nc3ccc(C(=NCC)NCC)cc3)cc2)cc1
active: endpoint: mean survival time, dose: 7.5 mg/kg/injection, schedule: Q01DX Z (ip), vehicle: saline 204 % of control
inactive: endpoint: mean survival time, dose: 7.5 mg/kg/injection, schedule: Q01DX010 (oral), vehicle: saline 98 % of control | endpoint: mean survival time, dose: 15.0 mg/kg/injection, schedule: Q01DX010 (oral), vehicle: saline 95 % of control | endpoint: mean survival time, dose: 15.0 mg/kg/injection, schedule: Q01DX Z (ip), vehicle: saline 106 % of control and 109 % of control | endpoint: mean survival time, dose: 30.0 mg/kg/injection, schedule: Q01DX010 (oral), vehicle: saline 91 % of control | endpoint: mean survival time, dose: 125.0 mg/kg/injection, schedule: Q01DX Z (oral), vehicle: saline 98 % of control | endpoint: mean survival time, dose: 125.0 mg/kg/injection, schedule: Q## X010 (oral), vehicle: saline 108 % of control | endpoint: mean survival time, dose: 250.0 mg/kg/injection, schedule: Q01DX Z (oral), vehicle: saline 96 % of control | endpoint: mean survival time, dose: 250.0 mg/kg/injection, schedule: Q## X010 (oral), vehicle: saline 123 % of control | endpoint: mean survival time, dose: 500.0 mg/kg/injection, schedule: Q01DX Z (oral), vehicle: saline 109 % of control

CCOC(=O)/C(C#N)=C\C1(C)CCC(C)=CO1 (configuration not stated)
inactive: endpoint: mean survival time, dose: 100.0 mg/kg/injection, schedule: Q01DX009 (ip), vehicle: saline with Tween-80 96 % of control | [4] 92 % of control | endpoint: mean survival time, dose: 200.0 mg/kg/injection, schedule: Q01DX009 (ip), vehicle: saline with Tween-80 110 % of control | [5] 115 % of control | endpoint: mean survival time, dose: 400.0 mg/kg/injection, schedule: Q01DX009 (ip), vehicle: saline with Tween-80 100 % of control | [6] 96 % of control

NC(=S)N/N=C/c1ccc([N+](=O)[O-])s1 (tested in a mixture with another compound)
inactive: endpoint: mean survival time, dose: 100.0 mg/kg/injection, schedule: Q01DX001 (ip), vehicle: carboxymethylcellulose (CMC) 92 % of control | endpoint: mean survival time, dose: 200.0 mg/kg/injection, schedule: Q01DX001 (ip), vehicle: carboxymethylcellulose (CMC) 97 % of control | endpoint: mean survival time, dose: 400.0 mg/kg/injection, schedule: Q01DX001 (ip), vehicle: carboxymethylcellulose (CMC) 94 % of control

C1CN=C2CCCN2C1
inactive: endpoint: mean survival time, dose: 18.75 mg/kg/injection, schedule: Q01DX009 (ip), vehicle: saline 100 % of control | endpoint: mean survival time, dose: 37.5 mg/kg/injection, schedule: Q01DX009 (ip), vehicle: saline 97 % of control

COC(=O)c1ccc(C(C)=O)cc1
inactive: [7] 103 % of control | [8] 97 % of control | [9] 100 % of control

O=C1C=C(Nc2ccc(S(=O)(=O)N(CCCl)CCCl)cc2)c2ccccc2C1=O
inactive: [10] 97 % of control | [11] 100 % of control | endpoint: mean survival time, dose: 400.0 mg/kg/injection, schedule: Q01DX009 (ip), vehicle: Klucel (hydroxypropylcellulose) (HPC) 102 % of control

CN(C)/C=C1/C=Cc2ccccc21
inactive: endpoint: mean survival time, dose: 100.0 mg/kg/injection, schedule: Q01DX009 (ip), vehicle: saline 98 % of control | endpoint: mean survival time, dose: 200.0 mg/kg/injection, schedule: Q01DX009 (ip), vehicle: saline 101 % of control | endpoint: mean survival time, dose: 400.0 mg/kg/injection, schedule: Q01DX009 (ip), vehicle: saline 97 % of control

CC(=O)OC1CCC(NC(=O)N(CCCl)N=O)CC1 (configuration not stated)
active: endpoint: mean survival time, dose: 15.0 mg/kg/injection, schedule: Q01DX001 (ip), vehicle: other 225 % of control | endpoint: mean survival time, dose: 30.0 mg/kg/injection, schedule: Q01DX001 (ip), vehicle: other 352 % of control | endpoint: mean survival time, dose: 62.0 mg/kg/injection, schedule: Q01DX001 (ip), vehicle: other 244 % of control

COc1nc(N)c([N+](=O)[O-])c(OC)n1
inactive: endpoint: mean survival time, dose: 16.0 mg/kg/injection, schedule: Q01DX Z (ip), vehicle: methylcellulose (MC) 97 % of control | endpoint: mean survival time, dose: 31.0 mg/kg/injection, schedule: Q01DX Z (ip), vehicle: methylcellulose (MC) 90 % of control | endpoint: mean survival time, dose: 62.0 mg/kg/injection, schedule: Q01DX Z (ip), vehicle: methylcellulose (MC) 103 % of control

CCc1ccc(C2=C(O)C(=O)C(c3ccccc3)=C(O)C2=O)cc1
inactive: endpoint: mean survival time, dose: 12.5 mg/kg/injection, schedule: Q01DX009 (ip), vehicle: acetone 95 % of control | endpoint: mean survival time, dose: 25.0 mg/kg/injection, schedule: Q01DX009 (ip), vehicle: acetone 90 % of control | endpoint: mean survival time, dose: 33.0 mg/kg/injection, schedule: Q01DX009 (ip), vehicle: acetone 96 % of control | endpoint: mean survival time, dose: 33.0 mg/kg/injection, schedule: Q01DX009 (ip), vehicle: saline 96 % of control | endpoint: mean survival time, dose: 50.0 mg/kg/injection, schedule: Q01DX009 (ip), vehicle: acetone 101 % of control | endpoint: mean survival time, dose: 50.0 mg/kg/injection, schedule: Q01DX009 (ip), vehicle: saline 97 % of control | endpoint: mean survival time, dose: 75.0 mg/kg/injection, schedule: Q01DX009 (ip), vehicle: acetone 118 % of control

CCCCCCCCSP(=S)(N1CC1)N1CC1
inactive: endpoint: mean survival time, dose: 50.0 mg/kg/injection, schedule: Q01DX001 (ip), vehicle: saline 102 % of control | [1] 108 % of control | [2] 98 % of control | [3] 96 % of control

Cc1cc(N(CCCl)CCCl)ccc1N=Nc1ccccc1
inactive: endpoint: median survival time, dose: 100.0 mg/kg/injection, schedule: Q01DX009 (ip), vehicle: Klucel (hydroxypropylcellulose) (HPC) 98 % of control | endpoint: median survival time, dose: 200.0 mg/kg/injection, schedule: Q01DX009 (ip), vehicle: Klucel (hydroxypropylcellulose) (HPC) 97 % of control | endpoint: median survival time, dose: 400.0 mg/kg/injection, schedule: Q01DX009 (ip), vehicle: Klucel (hydroxypropylcellulose) (HPC) 93 % of control

N#CC12C(=O)C3C4C=CC(C4)C3C(=O)C1(C#N)C1C=CC2C1 (configuration not stated)
inactive: [12] 94 % of control | [13] 92 % of control

Cc1ccc(CS)cc1
inactive: [10] 101 % of control | endpoint: mean survival time, dose: 100.0 mg/kg/injection, schedule: Q04DX003 (ip), vehicle: Klucel (hydroxypropylcellulose) (HPC) 97 % of control | [11] 93 % of control | endpoint: mean survival time, dose: 200.0 mg/kg/injection, schedule: Q04DX003 (ip), vehicle: Klucel (hydroxypropylcellulose) (HPC) 97 % of control | endpoint: mean survival time, dose: 400.0 mg/kg/injection, schedule: Q04DX003 (ip), vehicle: Klucel (hydroxypropylcellulose) (HPC) 92 % of control

O=C(O)C1C(C(=O)O)C2(c3ccccc3)C(=O)C1(c1ccccc1)C(c1ccccc1)=C2c1ccccc1 (configuration not stated)
inactive: [7] 89 % of control | [8] 110 % of control | [9] 100 % of control

c1ccc([Si]2(c3ccccc3)c3ccccc3-c3ccccc32)cc1
inactive: [12] 94 % of control | [13] 87 % of control | endpoint: mean survival time, dose: 400.0 mg/kg/injection, schedule: Q04DX003 (ip), vehicle: saline with Tween-80 87 % of control

C[CH2][Ge]([Cl])([CH2]C)[CH2]C
inactive: endpoint: mean survival time, dose: 50.0 mg/kg/injection, schedule: Q04DX003 (ip), vehicle: saline with Tween-80 99 % of control

COc1cc2c(cc1O)C(CCc1cc(OC)c(OC)c(OC)c1)=NCC2
inactive: endpoint: mean survival time, dose: 50.0 mg/kg/injection, schedule: Q04DX002 (ip), vehicle: saline 101 % of control | endpoint: mean survival time, dose: 100.0 mg/kg/injection, schedule: Q04DX002 (ip), vehicle: saline 104 % of control | endpoint: mean survival time, dose: 200.0 mg/kg/injection, schedule: Q04DX002 (ip), vehicle: saline 104 % of control

CC(O)CCc1ccccc1O (configuration not stated)
inactive: [4] 98 % of control | [5] 91 % of control | [6] 98 % of control

C[n+]1ccccc1/C=C/c1ccc(O)c2ccccc12
inactive: endpoint: mean survival time, dose: 15.0 mg/kg/injection, schedule: Q01DX001 (ip), vehicle: saline 97 % of control | endpoint: mean survival time, dose: 30.0 mg/kg/injection, schedule: Q01DX001 (ip), vehicle: saline 91 % of control | endpoint: mean survival time, dose: 60.0 mg/kg/injection, schedule: Q01DX001 (ip), vehicle: saline 103 % of control | endpoint: mean survival time, dose: 75.0 mg/kg/injection, schedule: Q01DX001 (ip), vehicle: saline 103 % of control

N#CC1(NC(=O)CCl)CCCCC1
inactive: endpoint: mean survival time, dose: 100.0 mg/kg/injection, schedule: Q01DX001 (ip), vehicle: other 96 % of control | endpoint: mean survival time, dose: 200.0 mg/kg/injection, schedule: Q01DX001 (ip), vehicle: other 91 % of control
